Entries after “also recorded” stand apart in the source; their conditions may differ.
How the values were obtained:
THP-1 cells = assay: Ca+2 mobilization (Indo-1AM fluorescence) and desensitization in THP-1 monocytic cells; type: cell-based; details: for DESENSITIZATION: desensitization of subsequent Ca+2 mobilization by MCP-1 or heterologous septapeptide; for Ca^+2 flux: peptide alone
Excerpt: Alternately, chemokine activity can be measured more quantitatively using Ca^+2 mobilization. Chemokines including MCP-1, -2 and -3 bind to several transmembrane, G-protein-linked receptors on the surface of monocytes, macrophages and microglia. Ligand binding induces signal transduction through the receptor-associated heterotrimeric G-proteins, leading to the generation of free Ca^+2 in the cytoplasm of chemokine-stimulated cells. The Ca^+2 rise is transient, and can be measured using a spectrofluorimeter. (The Cytokine Handbook) A typical readout is represented in FIG. 3, showing a positive Ca^+2 mobilization response to MCP-1 in THP-1 cells. THP-1 monocytic cells were loaded with the Ca^+2 indicator dye Indo-1AM and their cytoplasmic Ca^+2 content was measured during laser excitation. As Ca^+2 increases in the cytoplasm, the relative fluorescence intensity (RFI) of the dye increases in real time, exciting the detectors in the spectrofluorimeter. For example, after MCP-1 challenge of THP-1 cells, the RFI increases rapidly, and returns to baseline after about 60 seconds, as exemplified by the “spike” in the trace in FIG. 3 (the smaller peak before the large spike is an artifact generated by the introduction of the sample). Because the heterotrimeric G-proteins involved in the generation of the Ca^+2 signal are both rapidly dissociated and deactivated by phosphorylation, the increase in cytoplasmic Ca^+2 after ligand engagement can be desensitized. Therefore, challenging the cells a second time with MCP-1 would not result in a second spike, nor would a Ca^+2 spike result from subsequent challenge by another ligand which engages the same MCP-1 receptor
Some of the bacterial septapeptide MRHAS's (Sigma) were tested for their ability to increase cytoplasmic Ca^+2, and to desensitize subsequent Ca^+2 mobilization by MCP-1 and heterologous septapeptides. […] These included QQTAPKA (SEQ ID NO: 12) of L.monocytogenes (Figure. 4) and QVQNNKP (SEQ ID NO: 13) from H.influenzae type b (FIG. 5).

RG progenitor cells = assay: Maturation (mitogenic-like) activity on rat glial (RG) progenitor cell monolayers, scored visually; type: cell-based; details: 72 hours, above untreated baseline
Method: Since no appropriate CNS-derived cells are available for the detection of Ca^+2 mobilization, a continuous cell line of glial stem cells was established in culture in order to detect mitogenic-like effects scored upon visual examination. Glial cells from normal brain following kainic acid-induced lesions were established in continuous cell culture as previously described by Singh VK and Van Alstyne D., Brain Res (1978) 155:418-421.) Briefly, 1 ul of a solution of kainic acid monohydrate (Sigma), containing 5 nmole kainic acid in 0.9% saline, was injected into rat striatum under anaesthesia. Rats were anaesthetized and decapitated 5 days following injection and the brains were harvested immediately and placed in a sterile glass culture dish. The striatum from the injection site was dissected, placed in MEM (Gibco) containing 0.2% glucose, 10% fetal calf serum, 5 units/ml penicillin, 5 ug/ml streptomycin and then further minced using a sterile scalpel. The culture dish was then incubated at 37° C. in a humidified atmosphere containing 5% CO2. Each day for the first 3-4 days, the unattached tissue fragments were removed, washed once in fresh medium and returned to the culture dish until a complete monolayer was formed. The resulting monolayers were then subcultured every 5-6 days after trypsinization. The monolayers were treated with 0.25% trypsin (Gibco) for 5 minutes at 22° C. The cells were collected by low speed centrifugation, washed twice with complete growth medium, counted and replated in glass culture dishes. Once the cell line was established in glass dishes, the cells were then adapted and transferred to plastic culture dishes.
The mitogenic effect of diBcAMP on RG monolayers is shown in FIGS. 7A (untreated) and 7B (treated) cells after 24 hours. […] Mature cells were characterized using ThermoFisher Scientific CD11b and GFAP (Glial Fibrillary Acidic Protein) monoclonal antibodies AlexaFluor commonly used to detect microglial- and astrocyte-specific markers respectively. (Tran, E., et al. J. Neuroimmunology 74 (1997) 121-129). FIGS. 8A-8D show identical cells under brightfield illumination, with positive staining for microglial and astrocyte markers (CD11b and GFAP markers respectively. The identification of the majority of these cells as microglia, a subset of astrocytes, is significant since an overabundance of microglia has been associated with the development of AD (Weizmann Institute of Science, “The brain's rejuvenating cells,” Science Daily, 9 June, 2017:sciencedaily.com/release/2017/06/170609135903).
Peptides derived from amyloid beta and synthesized by Kinexus Inc. (Vancouver, Canada) were tested for their effects on RG cell cultures, according to the method of Yankner BR, et al., Science (1990) 250:279-282. Since septapeptides may be too small or unstable to form avid bonds with cell surface receptors, the 7 mer was bracketed within a slightly longer 10-mer construct, in order to maximize stability during the incubation procedure. A randomized sequence was used as a negative control.
These peptides were dissolved in DMSO (dimethyl sulfoxide) to maintain stability. This solvent slightly altered the shape of some cells at lower dilutions of peptide, giving a high background. Therefore, to avoid any interference with the results, RG cells were incubated in the presence of peptide concentrations ranging from […] to 10^-7 M for 72 hours. Positive cells were counted and data are presented as the number greater than the baseline number of maximal mature glia in untreated control cultures achieved by day 3, taken to be zero. Results are shown in Table 3 and photos of transformed cells are contained in FIGS. 9A and 9B.

RG cells = details: 1 mM dB-cAMP; cited from earlier work

Compound | DESENSITIZATION (THP-1 cells) | Ca^+2 flux (THP-1 cells) | Maturation activity, % conversion (RG progenitor cells; peptide 10^−6 M (1 uM)) | Maturation activity, % conversion (RG progenitor cells; peptide 10^−7 M (100 nM)) | other results
QQTAPKA [L. monocytogenes-derived MRHAS septapeptide] | lack of subsequent desensitization to MCP 1; also recorded: negative for MCP-1 | positive; also recorded: mild Ca^+2 agonists |  |  | 
QQQPPKA [S. pneumoniae-derived MRHAS septapeptide] | blocks activation by the Listeria-derived MRHAS; also recorded: positive for QQTAPKA | negative; also recorded: did not induce a Ca^+2 signal |  |  | 
FLVKAHEQFH [Peptide #3, reference compound] |  |  | <1% | <1% | 
^13HHEQKLVFFAE^22 (HHQKLVFFAE) [Peptide #2] |  |  | 41% | 27% | Maturation activity, % conversion (RG progenitor cells; peptide 10^−7 M (100 nM), listed as HHQKLVFFAE): 27%
MCP-1: human Monocyte Chemoattractant Protein 1, chemokine, positive control |  | positive |  |  | Ca^+2 flux (THP-1 cells; listed as hMCP-1): positive Ca^+2 responses
^1DAEFRHDSGYEVHHQKLVF^19 [Peptide #1] |  |  | 63% | 41% | 
QVQNNKP [H. influenzae type b-derived MRHAS septapeptide] | blocks activation by the Listeria-derived MRHAS; also recorded: positive for QQTAPKA | mild Ca^+2 agonists; also recorded: weakly positive |  |  | relative fluorescence intensity (RFI) (THP-1 cells; Ca+2 mobilization response): 2.0
CCCC(=O)Nc1ncnc2c1ncn2[C@@H]1O[C@@H]2COP(=O)(O)O[C@H]2[C@H]1OC(=O)CCC [diBcAMP, dibutyryl cyclicAMP] |  |  |  |  | cells with intracellular astrocyte-specific GFA protein (RG cells): 80%; cells with surface oligodendrocyte-specific galactocerebroside (GC) (RG cells): less than 10%

— patent publication US20240248100A1, “SEPTAPEPTIDES ASSOCIATED WITH NEURODEGENERACY” (SEPTA THERAPEUTICS, INC., priority 2018, published 2024)
